Measurements as given in the supplement of paper PMC13207355.

Assays:
Conditions in all cases: exposure time: 72 h
E21 [1] = patient-derived glioblastoma stem cells of mesenchymal subtype; assay: phenotypic distance (Euclidean, principal components) from DMSO controls (arbitrary units); higher = stronger morphological change
E34 [2] = patient-derived glioblastoma stem cells of proneural subtype; assay: as above
E13 [3] = patient-derived glioblastoma stem cells of classical subtype; assay: as above
E31 [4] = patient-derived glioblastoma stem cells of proneural subtype; assay: as above
E57 [5] = patient-derived glioblastoma stem cells of mesenchymal subtype; assay: as above
FT3469 [6] = normal neural stem cell line; assay: as above
E28 [7] = patient-derived glioblastoma stem cells of classical subtype; assay: as above
E21 [8] = assay: surviving fraction (nuclei count normalised to DMSO); higher = more cells surviving (less toxic)
E34 [9] = assay: as above
E13 [10] = assay: as above
E31 [11] = assay: as above
E57 [12] = assay: as above
FT3469 [13] = assay: as above
E28 [14] = assay: as above
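For phenotypic distance (Euclidean, principal components) from DMSO controls in this document: cell Painting imaging in 384-well plates, CellProfiler features reduced to at least 20 principal components, Euclidean distance versus same-plate DMSO vehicle wells (0.1% v/v), median over six images per well.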
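For surviving fraction (nuclei count normalised to DMSO) in this document: nuclei counted by high-content imaging of Hoechst-stained cells in laminin-coated 384-well plates, relative to 0.1% DMSO vehicle wells, with staurosporine as cell-death control.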

CC(=O)c1cnc2ccc(-c3cc(Cl)c(O)c(Cl)c3)nc2c1N[C@H]1CC[C@H](CN(C)C)CC1 [OTSSP167]
Conditions	phenotypic distance	surviving fraction
E13 [3], 0.4 nM	1.66	–
E13 [3], 1.2 nM	1.67	–
E13 [3], 3.7 nM	2.455	–
E13 [3], 11.1 nM	3.33	–
E13 [3], 33.3 nM	6.59	–
E13 [3], 100 nM	7.76	–
E13 [3], 300 nM	8.64	–
E13 [10], 0.4 nM	–	0.96
E13 [10], 1.2 nM	–	0.925
E13 [10], 3.7 nM	–	0.908
E13 [10], 11.1 nM	–	0.685
E13 [10], 33.3 nM	–	0.422
E13 [10], 100 nM	–	0.205
E13 [10], 300 nM	–	0.1423
E21 [1], 0.4 nM	1.7	–
E21 [1], 1.2 nM	2.06	–
E21 [1], 3.7 nM	2.41	–
E21 [1], 11.1 nM	2.49	–
E21 [1], 33.3 nM	4.22	–
E21 [1], 100 nM	4.87	–
E21 [1], 300 nM	6.25	–
E21 [8], 0.4 nM	–	0.988
E21 [8], 1.2 nM	–	1.09
E21 [8], 3.7 nM	–	0.945
E21 [8], 11.1 nM	–	0.737
E21 [8], 33.3 nM	–	0.546
E21 [8], 100 nM	–	0.317
E21 [8], 300 nM	–	0.161
E28 [7], 0.4 nM	1.32	–
E28 [7], 1.2 nM	1.49	–
E28 [7], 3.7 nM	1.75	–
E28 [7], 11.1 nM	2.62	–
E28 [7], 33.3 nM	4.37	–
E28 [7], 100 nM	4.36	–
E28 [7], 300 nM	4.295	–
E28 [14], 0.4 nM	–	1.04
E28 [14], 1.2 nM	–	1.21
E28 [14], 3.7 nM	–	1.16
E28 [14], 11.1 nM	–	0.994
E28 [14], 33.3 nM	–	0.575
E28 [14], 100 nM	–	0.247
E28 [14], 300 nM	–	0.233
E31 [4], 0.4 nM	1.92	–
E31 [4], 1.2 nM	2.29	–
E31 [4], 3.7 nM	2.8	–
E31 [4], 11.1 nM	2.81	–
E31 [4], 33.3 nM	2.5	–
E31 [4], 100 nM	5.33	–
E31 [4], 300 nM	7.69	–
E31 [11], 0.4 nM	–	0.94
E31 [11], 1.2 nM	–	0.896
E31 [11], 3.7 nM	–	1.02
E31 [11], 11.1 nM	–	0.913
E31 [11], 33.3 nM	–	0.59
E31 [11], 100 nM	–	0.196
E31 [11], 300 nM	–	0.0607
E34 [2], 0.4 nM	1.46	–
E34 [2], 1.2 nM	1.96	–
E34 [2], 3.7 nM	1.73	–
E34 [2], 11.1 nM	2.43	–
E34 [2], 33.3 nM	3.89	–
E34 [2], 100 nM	2.89	–
E34 [2], 300 nM	2.9	–
E34 [9], 0.4 nM	–	1
E34 [9], 1.2 nM	–	0.983
E34 [9], 3.7 nM	–	0.947
E34 [9], 11.1 nM	–	0.748
E34 [9], 33.3 nM	–	0.535
E34 [9], 100 nM	–	0.567
E34 [9], 300 nM	–	0.384
E57 [5], 0.4 nM	1.81	–
E57 [5], 1.2 nM	2.24	–
E57 [5], 3.7 nM	2.97	–
E57 [5], 11.1 nM	3.48	–
E57 [5], 33.3 nM	4.61	–
E57 [5], 100 nM	7.8122	–
E57 [5], 300 nM	5.83	–
E57 [12], 0.4 nM	–	1.43
E57 [12], 1.2 nM	–	1.46
E57 [12], 3.7 nM	–	1.48
E57 [12], 11.1 nM	–	1.23
E57 [12], 33.3 nM	–	0.626
E57 [12], 100 nM	–	0.171
E57 [12], 300 nM	–	0.108
FT3469 [6], 0.4 nM	2.21	–
FT3469 [6], 1.2 nM	2.77	–
FT3469 [6], 3.7 nM	3.26	–
FT3469 [6], 11.1 nM	3.53	–
FT3469 [6], 33.3 nM	4.08	–
FT3469 [6], 100 nM	4.14	–
FT3469 [6], 300 nM	3.137	–
FT3469 [13], 0.4 nM	–	1.13
FT3469 [13], 1.2 nM	–	1.2
FT3469 [13], 3.7 nM	–	1.08
FT3469 [13], 11.1 nM	–	0.783
FT3469 [13], 33.3 nM	–	0.638
FT3469 [13], 100 nM	–	0.502
FT3469 [13], 300 nM	–	0.45

C=CC(=O)Nc1cccc(Oc2nc(Nc3ccc(N4CCN(C)CC4)cc3)nc3ccsc23)c1 [Olmutinib]
Conditions	phenotypic distance	surviving fraction
E13 [3], 4.1 nM	0.908	–
E13 [3], 12.3 nM	0.809	–
E13 [3], 37 nM	2.13	–
E13 [3], 111.1 nM	1.1	–
E13 [3], 333.3 nM	0.827	–
E13 [3], 1000 nM	0.937	–
E13 [3], 3000 nM	1.92	–
E13 [10], 4.1 nM	–	0.944
E13 [10], 12.3 nM	–	0.915
E13 [10], 37 nM	–	0.963
E13 [10], 111.1 nM	–	0.967
E13 [10], 333.3 nM	–	0.965
E13 [10], 1000 nM	–	0.801
E13 [10], 3000 nM	–	0.453
E21 [1], 4.1 nM	0.923	–
E21 [1], 12.3 nM	0.831	–
E21 [1], 37 nM	0.851	–
E21 [1], 111.1 nM	3.27	–
E21 [1], 333.3 nM	1.24	–
E21 [1], 1000 nM	2.44	–
E21 [1], 3000 nM	5.22	–
E21 [8], 4.1 nM	–	0.895
E21 [8], 12.3 nM	–	0.932
E21 [8], 37 nM	–	0.932
E21 [8], 111.1 nM	–	0.759
E21 [8], 333.3 nM	–	0.873
E21 [8], 1000 nM	–	0.67
E21 [8], 3000 nM	–	0.411
E28 [7], 4.1 nM	0.675	–
E28 [7], 12.3 nM	0.862	–
E28 [7], 37 nM	0.601	–
E28 [7], 111.1 nM	0.634	–
E28 [7], 333.3 nM	0.515	–
E28 [7], 1000 nM	1.01	–
E28 [7], 3000 nM	2.28	–
E28 [14], 4.1 nM	–	0.955
E28 [14], 12.3 nM	–	0.88
E28 [14], 37 nM	–	1.02
E28 [14], 111.1 nM	–	0.954
E28 [14], 333.3 nM	–	0.885
E28 [14], 1000 nM	–	0.842
E28 [14], 3000 nM	–	0.419
E31 [4], 4.1 nM	1.5	–
E31 [4], 12.3 nM	0.605	–
E31 [4], 37 nM	0.731	–
E31 [4], 111.1 nM	1.36	–
E31 [4], 333.3 nM	0.65	–
E31 [4], 1000 nM	1.66	–
E31 [4], 3000 nM	4.05	–
E31 [11], 4.1 nM	–	0.776
E31 [11], 12.3 nM	–	0.969
E31 [11], 37 nM	–	1.01
E31 [11], 111.1 nM	–	0.698
E31 [11], 333.3 nM	–	0.856
E31 [11], 1000 nM	–	0.568
E31 [11], 3000 nM	–	0.155
E34 [2], 4.1 nM	0.793	–
E34 [2], 12.3 nM	0.977	–
E34 [2], 37 nM	0.66	–
E34 [2], 111.1 nM	0.999	–
E34 [2], 333.3 nM	0.636	–
E34 [2], 1000 nM	0.75	–
E34 [2], 3000 nM	2.02	–
E34 [9], 4.1 nM	–	0.929
E34 [9], 12.3 nM	–	0.967
E34 [9], 37 nM	–	0.814
E34 [9], 111.1 nM	–	0.994
E34 [9], 333.3 nM	–	0.857
E34 [9], 1000 nM	–	0.804
E34 [9], 3000 nM	–	0.673
E57 [5], 4.1 nM	0.67	–
E57 [5], 12.3 nM	0.94	–
E57 [5], 37 nM	0.658	–
E57 [5], 111.1 nM	2.04	–
E57 [5], 333.3 nM	0.972	–
E57 [5], 1000 nM	0.888	–
E57 [5], 3000 nM	3.89	–
E57 [12], 4.1 nM	–	0.983
E57 [12], 12.3 nM	–	1.09
E57 [12], 37 nM	–	0.983
E57 [12], 111.1 nM	–	0.915
E57 [12], 333.3 nM	–	0.958
E57 [12], 1000 nM	–	0.845
E57 [12], 3000 nM	–	0.585
FT3469 [6], 4.1 nM	1.28	–
FT3469 [6], 12.3 nM	1.16	–
FT3469 [6], 37 nM	1.51	–
FT3469 [6], 111.1 nM	1.24	–
FT3469 [6], 333.3 nM	1.44	–
FT3469 [6], 1000 nM	1.3	–
FT3469 [6], 3000 nM	1.91	–
FT3469 [13], 4.1 nM	–	0.879
FT3469 [13], 12.3 nM	–	0.925
FT3469 [13], 37 nM	–	0.864
FT3469 [13], 111.1 nM	–	0.916
FT3469 [13], 333.3 nM	–	0.851
FT3469 [13], 1000 nM	–	0.856
FT3469 [13], 3000 nM	–	0.722
